Measured values: patent US9782472B2, “Therapeutic compositions and methods for treating HIV including identification and manipulation of particular domains associated with immunogenicity” (The Regents of The University of California, priority 2008, dated 2017)

How the values were obtained:
Assay type in all cases: cell-based, HIV-1
108051_005 Q655R = 108051_005 Q655R (numbering of 108060)
Text: (§1) Construction of envelope gene libraries and pseudoviruses. Libraries of envelope glycoprotein were created from each subject by PCR amplification of full length envelope genes from cryopreserved plasma using the method described previously. The swarm of PCR products was cloned into a plasmid expression vector useful for the construction of pseudoviruses. The vector was specifically designed to permit the construction of pseudovirus libraries for use in a well-established and validated virus neutralization assay. However, instead of pooling all of the clones together and carrying out neutralization assays or drug sensitivity assays with an entire library of cloned genes from each infected individual as had been done previously, we plated out the plasmid library on agar plates and picked 24-48 clones from each individual for infectivity studies. The plasmid DNA was isolated from each clone and used to create a stock of pseudovirus particles that were then screened for infectivity, and chemokine receptor usage. After verifying infectivity and receptor usage, we then selected approximately ten CCR5-dependent pseudotype viruses with good infectivity for virus neutralization assays. The virus neutralization assays were carried out as described by Schweighardt et al.
(§2) Sequencing and mutagenesis. Plasmids containing cloned envelope glycoproteins were sequenced using fluorescently labeled dideoxynucleotides at either Monogram Biosciences or the University of California Sequencing Facility (Berkeley, Calif.) using capillary electrophoresis sequencing devices (Applied Biosystems, Foster City, Calif.). HIV envelope glycoprotein sequences were mutagenized by a mismatched primer method using the QuikChange Mutagenesis kit (Stratagene, San Diego). All mutations were confirmed by DNA sequencing. The numbering of amino acids is made with reference to the sequence of gp160 from clone 022 of from subject 108060. Position 655 corresponds to position 653 of the HXB2 reference strain of HIV-1.
(§3) Virus neutralization assay. The automated virus neutralization assay described in this study has been described previously. The neutralization data reported represent IC50 values calculated from serum dilution curves. This assay employs multiple assay controls, including a positive pseudotype virus control panel and a negative pseudotype virus control panel. Assay acceptability criteria have been established to minimize interassay variability and assure comparability of data from different experiments. The positive virus control panel includes the pseudotypes from the neutralization sensitive isolate, NL43, and the less neutralization sensitive primary isolate JRcsf. The negative virus (specificity) control consists of pseudotype viruses prepared from the envelope of the amphitropic murine leukemia virus.

108069_005 Q655R = test system: 108069_005 Q655R
Text: as §1, §2, §3

108060_024 R655Q = test system: 108060_024 R655Q
Text: as §1, §2, §3

108060_022 Q655R = test system: 108060_022 Q655R
Text: as §1, §2, §3

108051_005 wtR = test system: 108051_005 wtR
Text: as §1, §3

108060 clone 022 wtR = settings: 108060_022 wtR; 50% inhibition in target cell infection
Text: as §1, §3

108069_005 wtR = test system: 108069_005 wtR
Text: as §1, §3

108060 clone 024 wtS = test system: 108060 clone 024 wtS
Text: as §1, §3

108069_011 wtS = test system: 108069_011 wtS
Text: as §1, §3

108051_006 wtS = test system: 108051_006 wtS
Text: as §1, §3

## enfuvirtide
108051_005 Q655R
  IC50 of indicated MAb or fusion inhibitor: 0.036 µg/mL
108069_005 Q655R; 108069_005 Q655R (numbering of 108060)
  IC50 of indicated MAb or fusion inhibitor: 0.011 µg/mL
108069_005 Q655R; Q to R at position corresponding to 655 in the 108069 virus, versus parental virus
  Fold increase in sensitivity: more than 17 fold
108060_024 R655Q
  IC50 of indicated MAb or fusion inhibitor: 0.130 µg/mL
108060_022 Q655R; 108060_022 Q655R
  IC50 of indicated MAb or fusion inhibitor: 0.004 µg/mL
108060_022 Q655R; 108060_022 Q655R compared with wild-type clone 022
  Fold increase in neutralization sensitivity: 17 fold
108051_005 wtR
  IC50 of indicated MAb or fusion inhibitor: 0.088 µg/mL
108060 clone 022 wtR
  IC50 of indicated MAb or fusion inhibitor: 0.068 µg/mL
108069_005 wtR
  IC50 of indicated MAb or fusion inhibitor: 0.071 µg/mL
108060 clone 024 wtS; 108060_024 wtS
  IC50 of indicated MAb or fusion inhibitor: 0.019 µg/mL
108060 clone 024 wtS; clone 024 compared with clone 022 of subject 108060
  Fold more sensitive to neutralization: 3.5 fold
108069_011 wtS
  IC50 of indicated MAb or fusion inhibitor: 0.145 µg/mL
108051_006 wtS
  IC50 of indicated MAb or fusion inhibitor: 0.008 µg/mL
